Entries after “also recorded” stand apart in the source; their conditions may differ.
Columns and labels:
ubiquitin [1] = target: T1, ubiquitin (Schizosaccharomyces pombe, UniProt P0CH06); assay: NMR titration of 15N-ubiquitin (1H-15N HSQC chemical shift perturbations); format: binding, S. pombe; conditions: for Kd: peptide or protein titrated into 100 µM 15N-ubiquitin, 20 mM NaH2PO4, 150 mM NaCl, 5 mM TCEP, pH 7.5, global fit of CSPs to one-site-binding model
T1 construct: plasmid coding for S. pombe ubiquitin with an N-terminal 6xhistidine-tag, TEV-cleavage site as well as an N-terminal free cysteine; made in house; host or cells: E. coli BL21(DE3)
T1 sequence (P0CH06 1-76 limits assumed): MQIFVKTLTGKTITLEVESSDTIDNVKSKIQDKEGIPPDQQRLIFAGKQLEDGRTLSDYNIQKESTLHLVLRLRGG
Experimental: For interaction of the peptides with ^15N-ubiquitin, the lyophilized peptides were dissolved in MilliQ water and pH adjusted to 7.5. […] For the titrations of ubiquitin with each peptide, except the WT Dss1 peptide, 100 µM ubiquitin in NMR buffer was measured as one end point, and the 1 mM peptide and 100 µM ubiquitin as the other. Then, the peptide sample was titrated into the ubiquitin sample with titration points at 0, 50, 150, 300, 400, 500 and 1000 µM peptide. […] NMR samples were centrifuged 13.000×g for 5 min and transferred to either single-use 5 mm NMR tubes (Bruker) or 3 mm (Shigemi). To prepare NMR samples of ^15 N-labeled ubiquitin with full-length Dss1 and variants, lyophilized proteins were dissolved directly in the NMR buffer. The variants were each dissolved in 510 µL NMR buffer with 100 µM ubiquitin. The concentration of Dss1 in the NMR sample was determined by measuring the absorbance at 280 nm on a ND-1000 NanoDrop spectrophotometer, calibrated with the NMR buffer with 100 µM ubiquitin. The concentration of Dss1 varied between variants, depending on the purification yield. For all titrations, seven points of varying Dss1 concentration were recorded. To prepare NMR samples of ^15N-labeled ubiquitin with Spd1, Spd1 was buffer exchanged to MilliQ using a 3 kDa cut-off Amicon Ultra-0.5 ml centrifugal filter (Merk Millipore), lyophilized and resuspended in NMR buffer with 100 µM ubiquitin. […] For experiments with ubiquitin, 200 µL 1 mM ubiquitin was buffer exchanged to MilliQ water using a 3 kDa cut-off Amicon Ultra-0.5 ml centrifugal filter (Merk Millipore), lyophilized, and subsequently resuspended in 100 µL NMR buffer with 1 mM Dss1 for a final ubiquitin concentration of 2 mM and 1 mM, respectively. All samples were transferred to 3 mm (Shigemi) NMR tubes.
All NMR spectra were recorded on Bruker Avance III HD 600 MHz spectrometer with a Bruker proton-optimized quadruple resonance NMR ‘inverse’ (QCI) cryoprobe, a Bruker Avance III HD 750 MHz spectrometer with a Bruker proton-optimized triple resonance NMR ‘inverse’ (TCI) cryoprobe and a Bruker Avance Neo 800 MHz spectrometer with a Bruker carbon/nitrogen-optimized triple-resonance NMR 'observe' (TXO) cryoprobe. […] All spectra were zero-filled, apodized using cosine bells in all dimensions, Fourier transformed, and the zero-order phase was corrected manually using either nmrDraw, a component of NmrPipe or qMDD if spectra were recorded using non-linear-sampling (NLS). All spectra were analysed using the Analysis software.
The CSPs were fitted to a one-site-binding model using global fit, and the Kd-values are extracted using Eq. 2.2 Δδobs=Δδmax∙Pt+Lt+Kd-Pt+Lt+Kd^2-4Pt∙Lt^1/2/2∙Pt.
Peaks giving rise to large uncertainties in the fit, either due to weak signals or overlap, were removed after a first iteration of fitting, and the fit repeated on the remaining dataset.

ubiquitin [2] = target: T1, ubiquitin; assay: Membrane-bound peptide array probed with Cy5-labeled ubiquitin; format: binding, S. pombe; conditions: 15-mer peptides on cellulose membrane, 0.4 µM Cy5-labeled ubiquitin, 1 h, RT, fluorescence at 650 nm, mean of two membranes; compared with Pep1
Excerpt: Two identical membrane-bound peptide arrays, each with 50 peptide spots, were purchased from JPT peptide technologies as PepSpots™ (Germany). Here, peptides are covalently attached to a cellulose membrane with the C-terminal amino acid through a β-alanine. Each peptide spot contained approximately 2.44·10^15 molecules or 4 nmol peptides. For detection of binding, ubiquitin was labeled at the N-terminal free cysteine with Cy5 maleimide fluorophore (GE Healthcare), which has an emission maximum at 666 nm. Ubiquitin or His6-SUMO (50 µL–70 µM) was reduced with 10 times molar excess tris(2-carboxyethyl)phosphine (TCEP), and incubated with one aliquot of 10 µL, 3 mM Cy5 in dimethyl sulfoxide (DMSO) at RT for 2 h. Excess Cy5 was neutralized with 10 µL 14.3 mM βME, and the mixture was separated on a gravity flow Sepharose column (from NanoTemper Monolith Protein Labeling Kit Red-NHS (Amine Reactive)). The column was equilibrated with tris buffered saline with Tween 20 (TBS-T) buffer (20 mM Tris, 150 mM NaCl, 1 mM EDTA, 500 µL/L Tween 20, pH 7). The ubiquitin/SUMO-Cy5 mixture (73.5 µL) was loaded on the column, followed by 426.5 µL TBS-T buffer. To evaluate the concentration of ubiquitin and Cy5, the absorbance at 280 nm and 650 nm of each fraction was measured on a ND-1000 NanoDrop spectrophotometer (Thermo Fischer Scientific). Fractions where the absorbance peaked at both wavelengths simultaneously were pooled and used for the peptide array.
All wash and incubation steps were performed at RT on a rocking table. The membranes were first washed with 25 mL TBS-T buffer two times for 5 min. Next, the membranes were blocked with blocking buffer (TBS-T with 5% (w/v) skim milk powder) for 1 h and washed for 10 min in TBS-T buffer and the background signal at 650 nm acquired using a Chemidoc imager (Bio-Rad). […] After the incubation, the membranes were washed with TBS-T buffer for five times 5 min and the fluorescence signal at 650 nm acquired on the Chemidoc imager. The fluorescent signal was quantified using the image processing software ImageJ. The intensity from each peptide spot was read using the Microarray Profile plugin. The intensities acquired before adding ubiquitin were subtracted from the signals acquired after. Finally, the mean between the corresponding values from the two membranes was calculated and reported as the signal intensity for each peptide.

ubiquitin [3] = conditions: read-out: Kd of known UIM sequence for ubiquitin; cited from earlier work
SUMO [4] = conditions: read-out: SUMO affinity of known SUMO interacting motif; cited from earlier work
Excerpt: To investigate the binding specificity, we tested the peptides for interaction with the structurally related small ubiquitin-like modifier (SUMO), a ubiquitin-like protein also used as posttranslational modification, but involved in different signaling pathways. SUMO binds to extended stretches of residues with an interaction motif consisting of φφXφ, often followed by negatively charged residues or phosphorylation sites, where φ represents hydrophobic residues. Thus, known SUMO binding features partly overlap the features extracted above. Fluorescently labeled SUMO was added to ...

SUMO [5] = assay: Membrane-bound peptide array probed with Cy5-labeled SUMO; format: binding; conditions: 15-mer peptides on cellulose membrane, 0.4 µM Cy5-labeled His6-SUMO, 1 h, RT, fluorescence at 650 nm, mean of two membranes
Excerpt: Two identical membrane-bound peptide arrays, each with 50 peptide spots, were purchased from JPT peptide technologies as PepSpots™ (Germany). Here, peptides are covalently attached to a cellulose membrane with the C-terminal amino acid through a β-alanine. Each peptide spot contained approximately 2.44·10^15 molecules or 4 nmol peptides. For detection of binding, ubiquitin was labeled at the N-terminal free cysteine with Cy5 maleimide fluorophore (GE Healthcare), which has an emission maximum at 666 nm. […] To evaluate the concentration of ubiquitin and Cy5, the absorbance at 280 nm and 650 nm of each fraction was measured on a ND-1000 NanoDrop spectrophotometer (Thermo Fischer Scientific). Fractions where the absorbance peaked at both wavelengths simultaneously were pooled and used for the peptide array.
All wash and incubation steps were performed at RT on a rocking table. […] After the incubation, the membranes were washed with TBS-T buffer for five times 5 min and the fluorescence signal at 650 nm acquired on the Chemidoc imager. The fluorescent signal was quantified using the image processing software ImageJ. The intensity from each peptide spot was read using the Microarray Profile plugin. […] Finally, the mean between the corresponding values from the two membranes was calculated and reported as the signal intensity for each peptide.

Row | Substance | emission intensity of bound Cy5-ubiquitin (apparent affinity) (ubiquitin [2]) | other results
1 | Ac-DDTLWWEDDWWDDED-NH2 [PepDWD] | – | Kd (ubiquitin [1]): 600 ± 30 µM
2 | Ac-DDTLWWENNWWDDED-NH2 [Pep42] | increased emission intensity; also recorded: highest emission intensity | Kd (ubiquitin [1]): 1200 ± 90 µM
3 | Ac-DLWEDDWDLWEDDWD-NH2 [PepDMD] | – | Kd (ubiquitin [1]): 480 ± 40 µM
4 | Ac-DLWENNWDLWENNWD-NH2 [Pep43] | highest emission intensity | Kd (ubiquitin [1]): 1300 ± 120 µM
5 | Ac-GDDTLWENNWDDEDI-NH2 [Pep1] | – | chemical shift perturbations (CSPs) induced in the HSQC spectrum of ubiquitin (ubiquitin [1]; 1 mM 15-mer peptide added to 100 µM 15N-ubiquitin (120 µM for POLIIBP and ZFB)): much larger CSPs; Kd (ubiquitin [1]): 3000 ± 200 µM
6 | EDPDLKAAIQESLRE [Pep45, reference compound] | only weak emission intensities | Kd (ubiquitin [3]): 20 µM
7 | GDDDLWENNWDDEDI [Pep25, 15-mer variant of Dss1 UBS1, peptide array] | increased emission intensity | –
8 | GDDTDWENNWDDEDI [Pep8, 15-mer variant of Dss1 UBS1, peptide array] | increased emission intensity | –
9 | GDDTEWENNWDDEDI [Pep9, 15-mer variant of Dss1 UBS1, peptide array] | increased emission intensity | –
10 | GDDTFWENNWDDEDI [Pep5, 15-mer variant of Dss1 UBS1, peptide array] | increased emission intensity | –
11 | GDDTLWAAAWDDEDI [Pep36, 15-mer variant of Dss1 UBS1, peptide array] | reduced binding | –
12 | GDDTLWEDDWDDEDI [Pep20, 15-mer variant of Dss1 UBS1, peptide array] | increased emission intensity | –
13 | GDDTLWENNWWDDED [Pep41, 15-mer variant of Dss1 UBS1, peptide array] | increased emission intensity | –
14 | GDDTLWEPNWDDEDI [Pep40, 15-mer variant of Dss1 UBS1, peptide array] | enhanced emission | –
15 | GDDTLWETNWDDEDI [Pep39, 15-mer variant of Dss1 UBS1, peptide array] | enhanced emission; also recorded: increased ubiquitin affinity | –
16 | GDDTLWEVNWDDEDI [Pep38, 15-mer variant of Dss1 UBS1, peptide array] | enhanced emission; also recorded: increased ubiquitin affinity | –
17 | GDDTLWPNPWDDEDI [Pep37, 15-mer variant of Dss1 UBS1, peptide array] | no or negative effects on binding | –
18 | GDDTWWENNWDDEDI [Pep11, 15-mer variant of Dss1 UBS1, peptide array] | increased emission intensity | –
19 | GEAEERVVVISSSED [Pep48] | – | Kd (SUMO [4]): ~100 µM; emission intensity of bound Cy5-SUMO (apparent affinity) (SUMO [5]): lower-than-average affinity
20 | IQEDWELAERLQREE [Pep46, reference compound] | only weak emission intensities | Kd (ubiquitin [3]): 100 µM
21 | LKVDVIDLTIESSSD [Pep47] | – | Kd (SUMO [4]): 1 µM; emission intensity of bound Cy5-SUMO (apparent affinity) (SUMO [5]): high apparent affinity
